From patent publication US10874743B2, “IRAK degraders and uses thereof” (Kymera Therapeutics, Inc., priority 2017, dated 2020)

Tests used:
IRAK4 [1] = molecular target: T1, IRAK4 (Homo sapiens, UniProt Q9NWZ3); assay: OCI-LY-10 MSD assay for IRAK4 DC50; assay type: cell-based; set-up: endogenous in cells; host or cells: OCI-LY10; details: OCI-LY10 cells, 4 hr incubation, concentration required to degrade 50% of protein
T1 sequence (Q9NWZ3 1-460): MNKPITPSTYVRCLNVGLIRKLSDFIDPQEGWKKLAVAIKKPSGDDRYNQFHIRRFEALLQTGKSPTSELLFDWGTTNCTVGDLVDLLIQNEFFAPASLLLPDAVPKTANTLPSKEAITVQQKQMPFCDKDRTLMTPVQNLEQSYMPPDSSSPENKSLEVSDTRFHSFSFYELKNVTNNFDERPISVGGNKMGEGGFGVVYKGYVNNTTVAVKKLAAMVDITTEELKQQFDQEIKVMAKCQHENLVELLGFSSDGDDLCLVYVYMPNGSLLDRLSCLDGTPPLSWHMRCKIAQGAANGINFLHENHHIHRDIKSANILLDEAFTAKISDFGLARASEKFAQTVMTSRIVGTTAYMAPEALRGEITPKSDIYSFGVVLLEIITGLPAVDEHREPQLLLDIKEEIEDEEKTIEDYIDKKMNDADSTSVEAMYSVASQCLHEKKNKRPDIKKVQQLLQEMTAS
Method in brief: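 IRAK4 level was quantified by MSD electrochemiluminescence (anti-IRAK4 capture antibody, rabbit anti-IRAK4 detection antibody) in RIPA lysates of OCI-Ly10 cells. Cells had been treated with compound for 4 hr (8-point, 3-fold serial dilution). Remaining protein versus concentration was fitted to a sigmoidal curve to give DC50.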

IRAK4 [2] = molecular target: T1, IRAK4; assay: OCI-LY-10 degradation assay (western blot, % IRAK4 degraded after 4 hours); assay type: cell-based; set-up: endogenous in cells; host or cells: OCI-LY10; details: OCI-LY10 cells, 4 hours; for OCI-LY10 % IRAK4 Degradation (0.01 uM): 0.01 uM compound; for OCI-LY10 % IRAK4 Degradation (0.1 uM): 0.1 uM compound; for OCI-LY10 % IRAK4 Degradation (1 uM): 1 uM compound
Method in brief: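 IRAK4 loss after 4 h at 37° C was scored A (>50%), B (>20-50%) or C (<20%) from infrared western blots of RIPA lysates, 20-25 μg protein per lane. Compound was applied at 0.003-10 μM final to OCI-LY10 cells cultured in RPMI-1640 with 20% FBS and 55 μM 2-ME.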

Row | DC50 (IRAK4 [1]) | OCI-LY10 % IRAK4 Degradation (0.01 uM) (IRAK4 [2]) | OCI-LY10 % IRAK4 Degradation (0.1 uM) (IRAK4 [2]) | OCI-LY10 % IRAK4 Degradation (1 uM) (IRAK4 [2]) | SMILES
1 | < 50 nM | C (<20% degradation) | B (>20-50% degradation) | A (>50% degradation) | O=C1CCC(N2C(=O)c3cccc(NC4CCN(CCOCCOCCOCCNC(=O)c5ccc(-n6cc(NC(=O)c7coc(-c8ccnc(NCC9CC9)c8)n7)c(C(F)F)n6)cc5)CC4)c3C2=O)C(=O)N1 (stereo not drawn) [I-269]
2 | 100 to 500 nM | C (<20% degradation) | B (>20-50% degradation) | A (>50% degradation) | O=C1CCC(N2C(=O)c3ccc(NC4CCN(CCOCCOCCNC(=O)c5ccc(-n6cc(NC(=O)c7coc(-c8ccnc(NCC9CC9)c8)n7)c(C(F)F)n6)cc5)CC4)cc3C2=O)C(=O)N1 (stereo not drawn) [I-270]
3 | 100 to 500 nM | C (<20% degradation) | B (>20-50% degradation) | A (>50% degradation) | O=C1CCC(N2C(=O)c3ccc(NC4CCN(CCOCCOCCOCCNC(=O)c5ccc(-n6cc(NC(=O)c7coc(-c8ccnc(NCC9CC9)c8)n7)c(C(F)F)n6)cc5)CC4)cc3C2=O)C(=O)N1 (stereo not drawn) [I-272]
4 | 50 to 100 nM | C (<20% degradation) | B (>20-50% degradation) | A (>50% degradation) | O=C1CCC(N2C(=O)c3ccc(N4CCN(CCOCCOCCNC(=O)c5ccc(-n6cc(NC(=O)c7coc(-c8ccnc(NCC9CC9)c8)n7)c(C(F)F)n6)cc5)CC4)cc3C2=O)C(=O)N1 (stereo not drawn) [I-276]
5 | 50 to 100 nM | C (<20% degradation) | A (>50% degradation) | A (>50% degradation) | O=C1CCC(N2C(=O)c3ccc(N4CCN(CCOCCNC(=O)c5ccc(-n6cc(NC(=O)c7coc(-c8ccnc(NCC9CC9)c8)n7)c(C(F)F)n6)cc5)CC4)cc3C2=O)C(=O)N1 (stereo not drawn) [I-277]
6 | 50 to 100 nM | C (<20% degradation) | B (>20-50% degradation) | A (>50% degradation) | O=C1CCC(N2C(=O)c3ccc(N4CCN(CCOCCOCCOCCNC(=O)c5ccc(-n6cc(NC(=O)c7coc(-c8ccnc(NCC9CC9)c8)n7)c(C(F)F)n6)cc5)CC4)cc3C2=O)C(=O)N1 (stereo not drawn) [I-278]
7 | 50 to 100 nM | C (<20% degradation) | A (>50% degradation) | A (>50% degradation) | CN(CCOCCOCCCc1ccc2c(c1)C(=O)N(C1CCC(=O)NC1=O)C2=O)C(=O)c1ccc(-n2cc(NC(=O)c3coc(-c4ccnc(NCC(F)(F)F)c4)n3)c(C(F)F)n2)cc1 (stereo not drawn) [I-279]
8 | 50 to 100 nM | C (<20% degradation) | A (>50% degradation) | A (>50% degradation) | O=C1CCC(N2C(=O)c3cccc(NCCOCCN4CCO[C@H](CNC(=O)c5ccc(-n6cc(NC(=O)c7coc(-c8ccnc(NCC(F)(F)F)c8)n7)c(C(F)F)n6)cc5)C4)c3C2=O)C(=O)N1 (stereo partly drawn) [I-281]
9 | < 50 nM | A (>50% degradation) | A (>50% degradation) | A (>50% degradation) | O=C1CCC(N2C(=O)c3cccc(NC4CCN(CCOCCOCCNC(=O)c5ccc(-n6cc(NC(=O)c7coc(-c8ccnc(NCC(F)(F)F)c8)n7)c(C(F)F)n6)cc5)CC4)c3C2=O)C(=O)N1 (stereo not drawn) [I-283]
10 | > 1000 nM | C (<20% degradation) | C (<20% degradation) | C (<20% degradation) | CC(C)(C)[C@H](NC(=O)COCCOCCOCCNc1cccc2c1C(=O)N(C1CCC(=O)NC1=O)C2=O)C(=O)N1C[C@H](O)C[C@H]1C(=O)NCc1ccc(-n2cc(NC(=O)c3coc(-c4ccnc(NCC5CC5)c4)n3)c(C(F)F)n2)cc1 (stereo partly drawn) [I-284]
11 | > 1000 nM | C (<20% degradation) | C (<20% degradation) | B (>20-50% degradation) | O=C1CCC(N2C(=O)c3cccc(NCCOCCOCCOCC(=O)N4C[C@H](O)C[C@H]4C(=O)NCc4ccc(-n5cc(NC(=O)c6coc(-c7ccnc(NCC8CC8)c7)n6)c(C(F)F)n5)cc4)c3C2=O)C(=O)N1 (stereo partly drawn) [I-287]
12 | 50 to 100 nM | C (<20% degradation) | C (<20% degradation) | A (>50% degradation) | CC(=O)O[C@@H]1C[C@@H](C(=O)NCc2ccc(-n3cc(NC(=O)c4coc(-c5ccnc(NCC6CC6)c5)n4)c(C(F)F)n3)cc2)N(C(=O)COCCOCCOCCNc2cccc3c2C(=O)N(C2CCC(=O)NC2=O)C3=O)C1 (stereo partly drawn) [I-288]
13 | > 1000 nM | B (>20-50% degradation) | B (>20-50% degradation) | B (>20-50% degradation) | NC(=O)c1nn(-c2ccc(C(=O)NCCOCCOCCN3CCC(Nc4cccc5c4C(=O)N(C4CCC(=O)NC4=O)C5=O)CC3)cc2)cc1NC(=O)c1coc(-c2ccnc(NCC3CC3)c2)n1 (stereo not drawn) [I-290]
14 | > 1000 nM | C (<20% degradation) | C (<20% degradation) | C (<20% degradation) | Cn1cc(NC(=O)c2coc(-c3ccnc(NCC(F)(F)F)c3)n2)c(C(=O)NCCCOCC(C)(C)COCCCc2cccc3c2n(C)c(=O)n3C2CCC(=O)NC2=O)n1 (stereo not drawn) [I-297]
15 | < 50 nM | B (>20-50% degradation) | A (>50% degradation) | A (>50% degradation) | NC(=O)c1nn(-c2ccc(COCC3CN(CCOCCNc4cccc5c4C(=O)N(C4CCC(=O)NC4=O)C5=O)CCO3)cc2)cc1NC(=O)c1coc(-c2ccnc(NCC(F)(F)F)c2)n1 (stereo not drawn) [I-302, N-[3-carbamoyl-1-[4-[[4-[2-[2-[[2-(2,6-dioxo-3-piperidyl)-1,3-dioxo-isoindolin-4-yl]amino]ethoxy]ethyl]morpholin-2-yl]methoxymethyl]phenyl]pyrazol-4-yl]-2-[2-(2,2,2-trifluoroethylamino)-4-pyridyl]oxazole-4-carboxamide]
16 | < 50 nM | A (>50% degradation) | A (>50% degradation) | A (>50% degradation) | NC(=O)c1nn(-c2ccc(CNCC3CN(CCOCCNc4cccc5c4C(=O)N(C4CCC(=O)NC4=O)C5=O)CCO3)cc2)cc1NC(=O)c1coc(-c2ccnc(NCC(F)(F)F)c2)n1 (stereo not drawn) [I-305, N-[3-carbamoyl-1-[4-[[[4-[2-[2-[[2-(2,6-dioxo-3-piperidyl)-1,3-dioxo-isoindolin-4-yl]amino]ethoxy]ethyl]morpholin-2-yl]methylamino]methyl]phenyl]pyrazol-4-yl]-2-[2-(2,2,2-trifluoroethylamino)-4-pyridyl]oxazole-4-carboxamide]
17 | 50 to 100 nM | B (>20-50% degradation) | A (>50% degradation) | A (>50% degradation) | CN(CCOCCOCCCc1ccc2c(c1)C(=O)N(C1CCC(=O)NC1=O)C2=O)Cc1ccc(-n2cc(NC(=O)c3coc(-c4ccnc(NCC5CC5)c4)n3)c(C(N)=O)n2)cc1 (stereo not drawn) [I-308]
18 | < 50 nM | B (>20-50% degradation) | A (>50% degradation) | A (>50% degradation) | NC(=O)c1nn(-c2ccc(CNCCOCCOCCn3c(=O)n(C4CCC(=O)NC4=O)c4ccccc43)cc2)cc1NC(=O)c1coc(-c2ccnc(NCC3CC3)c2)n1 (stereo not drawn) [I-319]
19 | > 1000 nM | C (<20% degradation) | B (>20-50% degradation) | B (>20-50% degradation) | NC(=O)c1nn(-c2ccc(CNCCOCCCc3cccc4c3C(=O)N(C3CCC(=O)NC3=O)C4=O)cc2)cc1NC(=O)c1coc(-c2ccnc(NCC(F)(F)F)c2)n1 (stereo not drawn) [I-320]
20 | < 50 nM | B (>20-50% degradation) | A (>50% degradation) | A (>50% degradation) | NC(=O)c1nn(-c2ccc(CNCCOCCOCCCc3cccc4c3C(=O)N(C3CCC(=O)NC3=O)C4=O)cc2)cc1NC(=O)c1coc(-c2ccnc(NCC(F)(F)F)c2)n1 (stereo not drawn) [I-321]
21 | < 50 nM | A (>50% degradation) | A (>50% degradation) | A (>50% degradation) | Cn1c(=O)n(C2CCC(=O)NC2=O)c2cccc(CCCOCCOCCNCc3ccc(-n4cc(NC(=O)c5coc(-c6ccnc(NCC7CC7)c6)n5)c(C(F)F)n4)cc3)c21 (stereo not drawn) [I-332]
